For 36 molecules, Activity, IC50 and Ki results are on record in ChEMBL document CHEMBL1255445, “Evaluation of nucleoside hydrolase inhibitors for treatment of African trypanosomiasis” (Antimicrob Agents Chemother, 2010).

Structures are written as SMILES. Activity calls are given as the source filed them. How the calls were made is not given here.

For one assay, the system named is Trypanosoma cruzi. Kind of assay: Antitrypanosomal activity against Trypanosoma cruzi Tulahuen CL2 s-galactosidase strain assessed as reduction in parasite growth after 3 days by fluorometrically. The class given is functional, organism-based.
Assay [1] relates to Trypanosoma brucei brucei. Kind of assay: Antitrypanosomal activity against suramin sensitive Trypanosoma brucei brucei Lister 427 assessed as reduction in parasite growth after 3 days by fluorometrically. The class given is functional, organism-based. Conditions: Lister 427, 72 h.
The next assay concerns Leishmania infantum. In words: Antileishmanial activity against Leishmania infantum MHOM/MA/67/ITMAP263 intracellular amastigotes assessed as reduction in parasite growth after 3 days by fluorometrically. The class given is functional, organism-based.
Assay [2] is described as follows: Inhibition of Trypanosoma vivax Inosine-adenosine-guanosine-nucleoside hydrolase.
The subject of another assay is Plasmodium falciparum. In words: Antiparasitic activity against chloroquine-sensitive Plasmodium falciparum Ghana assessed as reduction in parasite growth after 3 days by fluorimetry. The class given is functional, organism-based.

In the case of `Nc1ccc2cccc(CN3C[C@H](O)[C@H](O)[C@H]3CO)c2n1`, the result with Trypanosoma cruzi, with Leishmania infantum and in the assay with Plasmodium falciparum was inactive. Besides, the IC50 (commonly the concentration that inhibits the measured activity by half) in assay [1] was > 64 µM. Besides, in assay [2], the affinity corresponds to a Ki of 8.4 µM.

As to `OC[C@@H]1[C@@H](O)[C@@H](O)CN1Cc1cccc2ccc(Cl)nc12`, the result with Trypanosoma cruzi, with Leishmania infantum and in the assay on Plasmodium falciparum was inactive. The IC50 in assay [1] turned out to be 29 µM. Moreover, the inhibitory constant (Ki) – broadly, a dissociation constant, usually derived from enzyme kinetics or from competition with a known ligand – in assay [2] worked out at 0.31 µM.

In the case of `N=C(N)c1ccc(CN2C[C@H](O)[C@H](O)[C@H]2CO)cc1`, the outcome in the assay on Trypanosoma cruzi, in the assay with Leishmania infantum and in the assay with Plasmodium falciparum was inactive. In assay [1], the IC50 was determined as 48 µM. Moreover, in assay [2], the Ki was determined as 6.7 µM.

As for `OC[C@H]1NC[C@H](O)[C@@H]1O` [IMINORIBITOL], the outcome with Trypanosoma cruzi, in the assay with Leishmania infantum and in the assay with Plasmodium falciparum was inactive. Besides, in assay [1], the IC50 was > 64 µM. In assay [2], this molecule gave a Ki of 6 µM.

For the molecule `N=C(N)NCCCN1C[C@H](O)[C@H](O)[C@H]1CO`, the result in the assay on Trypanosoma cruzi, in the assay on Leishmania infantum and with Plasmodium falciparum was inactive. In addition, the IC50 in assay [1] is > 64 µM. Further, the Ki in assay [2] turned out to be 39.9 µM.

Regarding `OC[C@@H]1[C@@H](O)[C@@H](O)CN1Cc1cnc2ccccc2c1`, the outcome in the assay on Trypanosoma cruzi, in the assay with Leishmania infantum and in the assay with Plasmodium falciparum was inactive. Further, the IC50 in assay [1] was > 64 µM. This molecule displayed a Ki in assay [2] of 20 µM.

Turning to `OC[C@@H]1[C@@H](O)[C@@H](O)CN1Cc1ccc(-n2cccc2)cc1`, the outcome with Trypanosoma cruzi, in the assay on Leishmania infantum and with Plasmodium falciparum was inactive. The IC50 in assay [1] came to 38 µM. The Ki in assay [2] was found to be 1 µM.

As to `OC[C@@H]1[C@@H](O)[C@@H](O)CN1Cc1ccc2cccc(O)c2n1`, the result with Trypanosoma cruzi, with Leishmania infantum and in the assay on Plasmodium falciparum was inactive. In addition, the IC50 in assay [1] worked out at 49 µM. Further, the Ki in assay [2] worked out at 1 µM.

For `COc1ccc2cccc(CN3C[C@H](O)[C@H](O)[C@H]3CO)c2n1`, the outcome with Trypanosoma cruzi, in the assay on Leishmania infantum and in the assay with Plasmodium falciparum was inactive. In assay [1], the IC50 is > 64 µM. Besides, the Ki in assay [2] was 1.3 µM.

For the molecule `OC[C@@H]1[C@@H](O)[C@@H](O)CN1Cc1ccc2ccccc2c1`, the result with Trypanosoma cruzi, in the assay on Leishmania infantum and in the assay with Plasmodium falciparum was inactive. Also, the IC50 in assay [1] is > 64 µM. In addition, the affinity in assay [2] corresponds to a Ki of 2 µM.

In the case of `OC[C@@H]1[C@@H](O)[C@@H](O)CN1Cc1ccc(-n2cncn2)cc1`, the outcome in the assay with Trypanosoma cruzi, with Leishmania infantum and with Plasmodium falciparum was inactive. The IC50 in assay [1] is > 64 µM. The same molecule had a Ki in assay [2] of 1.2 µM.

`N=C(N)NCCN1C[C@H](O)[C@H](O)[C@H]1CO`: the result in the assay on Trypanosoma cruzi, in the assay with Leishmania infantum and in the assay on Plasmodium falciparum was inactive. Besides, in assay [1], the IC50 was > 64 µM. The affinity in assay [2] corresponds to a Ki of 286 µM.

Turning to `COc1ccc(CN2C[C@H](O)[C@H](O)[C@H]2CO)cn1`, the outcome with Trypanosoma cruzi, in the assay with Leishmania infantum and in the assay on Plasmodium falciparum was inactive. Also, the IC50 in assay [1] is > 64 µM. The Ki in assay [2] is 32 µM.

For `Cc1cc(Cl)c2cccc(CN3C[C@H](O)[C@H](O)[C@H]3CO)c2n1`, the result in the assay on Trypanosoma cruzi, with Leishmania infantum and in the assay with Plasmodium falciparum was inactive. Moreover, in assay [1], the IC50 worked out at 22 µM. For the same molecule, the Ki in assay [2] is 0.37 µM.

As to `OC[C@@H]1[C@@H](O)[C@@H](O)CN1Cc1ccccc1`, the result with Trypanosoma cruzi, with Leishmania infantum and in the assay with Plasmodium falciparum was inactive. Moreover, the inhibitory constant (Ki) in assay [2] stood at 58 µM.

Turning to `OC[C@@H]1[C@@H](O)[C@@H](O)CN1Cc1ccc2cccnc2c1`, the outcome in the assay on Trypanosoma cruzi, with Leishmania infantum and with Plasmodium falciparum was inactive. The IC50 in assay [1] is > 64 µM. In assay [2], the Ki was determined as 0.72 µM.

`N=C(N)Nc1ccc(CN2C[C@H](O)[C@H](O)[C@H]2CO)cc1`: the outcome with Trypanosoma cruzi, with Leishmania infantum and with Plasmodium falciparum was inactive. Also, the IC50 in assay [1] was > 64 µM. In addition, the Ki in assay [2] was determined as 7 µM.

Turning to `Cc1nn(-c2ccccc2)nc1CN1C[C@H](O)[C@H](O)[C@H]1CO`, the result with Trypanosoma cruzi, in the assay on Leishmania infantum and with Plasmodium falciparum was inactive. Besides, the IC50 in assay [1] was > 64 µM. The same molecule yielded a Ki in assay [2] of 0.063 µM.

As for `Cc1cc(N)c2cccc(CN3C[C@H](O)[C@H](O)[C@H]3CO)c2n1`, the result in the assay on Trypanosoma cruzi, in the assay with Leishmania infantum and with Plasmodium falciparum was inactive. In assay [1], the IC50 is > 64 µM. Besides, in assay [2], the Ki came out at 71 µM.

As to `OC[C@@H]1[C@@H](O)[C@@H](O)CN1Cc1ccc2ccccc2n1`, the result with Trypanosoma cruzi, in the assay with Leishmania infantum and in the assay with Plasmodium falciparum was inactive. Further, the Ki in assay [2] was 0.18 µM.

Consider `OC[C@@H]1[C@@H](O)[C@@H](O)CN1Cc1ccc(I)cc1`, for which the outcome with Trypanosoma cruzi, with Leishmania infantum and with Plasmodium falciparum was inactive. Further, the IC50 in assay [1] is > 64 µM. In addition, the Ki in assay [2] was 4.3 µM.

As for `OC[C@@H]1[C@@H](O)[C@@H](O)CN1Cc1cccc(-n2cccc2)c1`, the result in the assay with Trypanosoma cruzi, in the assay on Leishmania infantum and in the assay on Plasmodium falciparum was inactive. In assay [1], the IC50 is 29 µM. The molecule also returned a Ki in assay [2] of 3.4 µM.

Consider `O=c1ccc2cccc(CN3C[C@H](O)[C@H](O)[C@H]3CO)c2[nH]1`, for which the outcome in the assay with Trypanosoma cruzi, in the assay on Leishmania infantum and in the assay with Plasmodium falciparum was inactive. Moreover, in assay [1], the IC50 is > 64 µM. This molecule also showed a Ki in assay [2] of 187 µM.

As to `Nc1ncccc1CN1C[C@H](O)[C@H](O)[C@H]1CO`, the outcome in the assay on Trypanosoma cruzi, with Leishmania infantum and in the assay with Plasmodium falciparum was inactive. Besides, the IC50 in assay [1] was > 64 µM. In assay [2], this molecule showed a Ki of 121 µM.

For `O=[N+]([O-])c1ccc(CN2C[C@H](O)[C@H](O)[C@H]2CO)cc1`, the outcome in the assay with Trypanosoma cruzi, with Leishmania infantum and with Plasmodium falciparum was inactive. The IC50 in assay [1] is > 64 µM. Also, the Ki in assay [2] came out at 7.5 µM.

With `OC[C@@H]1[C@@H](O)[C@@H](O)CN1Cc1ccnc2ccccc12`, the result in the assay on Trypanosoma cruzi, in the assay on Leishmania infantum and in the assay on Plasmodium falciparum was inactive. Also, the IC50 in assay [1] is > 64 µM. This molecule also showed a Ki in assay [2] of 29 µM.

Consider `OC[C@@H]1[C@@H](O)[C@@H](O)CN1Cc1ccc(-n2cccn2)cc1`, for which the outcome in the assay with Trypanosoma cruzi, in the assay on Leishmania infantum and in the assay on Plasmodium falciparum was inactive. Moreover, the IC50 in assay [1] is > 64 µM. The same molecule displayed a Ki in assay [2] of 1.2 µM.

For `Cn1nnc2cc(CN3C[C@H](O)[C@H](O)[C@H]3CO)ccc21`, the outcome with Trypanosoma cruzi, in the assay on Leishmania infantum and with Plasmodium falciparum was inactive. Further, the IC50 in assay [1] was > 64 µM. In assay [2], this molecule came in with a Ki of 0.72 µM.

Take `CN1C(CCNC(=N)N)[C@H](O)[C@H](O)[C@H]1CO` (stereo partly drawn): the outcome in the assay on Trypanosoma cruzi, in the assay with Leishmania infantum and in the assay with Plasmodium falciparum was inactive. In assay [2], this molecule gave a Ki of 18 µM.

On to `OC[C@@H]1[C@@H](O)[C@@H](O)CN1Cc1nccc2ccccc12`, for which the result in the assay on Trypanosoma cruzi, in the assay with Leishmania infantum and with Plasmodium falciparum was inactive. The molecule further displayed a Ki in assay [2] of 0.75 µM.

For `OC[C@@H]1[C@@H](O)[C@@H](O)CN1Cc1ccncc1`, the result in the assay on Trypanosoma cruzi, in the assay with Leishmania infantum and in the assay with Plasmodium falciparum was inactive. The molecule further returned a Ki in assay [2] of 20 µM.

On to `N#Cc1ccc(CN2C[C@H](O)[C@H](O)[C@H]2CO)cc1`, for which the result with Trypanosoma cruzi, in the assay with Leishmania infantum and in the assay with Plasmodium falciparum was inactive. The same molecule came in with a Ki in assay [2] of 26 µM.

As for `Cc1nc(-c2ccccc2)ncc1CN1C[C@H](O)[C@H](O)[C@H]1CO`, the result in the assay with Trypanosoma cruzi, with Leishmania infantum and with Plasmodium falciparum was inactive. For the same molecule, in assay [1], the IC50 is > 64 µM. This molecule returned a Ki in assay [2] of 43 µM.

On to `Cn1c(CN2C[C@H](O)[C@H](O)[C@H]2CO)nc2ccccc21`, for which the result in the assay with Trypanosoma cruzi, with Leishmania infantum and in the assay on Plasmodium falciparum was inactive. The molecule also came in with a Ki in assay [2] of 2.1 µM.

For the molecule `N#Cc1cccc(CN2C[C@H](O)[C@H](O)[C@H]2CO)c1`, the outcome with Trypanosoma cruzi, in the assay with Leishmania infantum and in the assay with Plasmodium falciparum was inactive. The IC50 in assay [1] is > 64 µM. For the same molecule, the affinity in assay [2], expressed as Ki, was 3.8 µM.

Consider `O=[N+]([O-])c1cccc(CN2C[C@H](O)[C@H](O)[C@H]2CO)c1`, for which the outcome in the assay with Trypanosoma cruzi, in the assay on Leishmania infantum and in the assay with Plasmodium falciparum was inactive. The IC50 in assay [1] was > 64 µM. In assay [2], the affinity, expressed as Ki, was 23 µM.
